In patent publication US20100216661A1, “Diagnostic Assay” (priority 2007, published 2010):

How the values were obtained:
[1] = tested on: anti-Fy^a monoclonal antibody (LM487); assay: Phage ELISA (capture ELISA) of phage-peptides on coated anti-Fy^a antibody; type: binding, Murine; settings: FIG. 3; 19 Fya phage-peptide clones (Fya1-18 & Fya25); OD450 greater than 0.1 considered positive
Method: (§1) The ability of the recovered phage-peptides to react with the antibodies used in their selection was confirmed by capture ELISA. A 10 μg/ml stock of appropriate monoclonal antibody was prepared in ELISA coating buffer and 150 μl aliquots were added to wells of an Immulon 4 ELISA plate, and then incubated overnight at 4° C. Unbound antibody was discarded and the wells were blocked with 350 μl of blocking buffer (0.1M NaHCO3/3% skimmed milk powder) for 1 hour at 4° C. The wells were washed three times with 300 μl TBS/0.5% Tween 20 and 100 μl of selected phage culture supernatants were added to appropriate wells for 1 hour at room temperature. Unbound phage were removed and the wells washed six times with 300 μl TBS/0.5% Tween 20. A 1:5000 dilution of horseradish peroxidase (HRP) conjugated anti-M13, secondary antibody was prepared in blocking buffer and 100 μl aliquots added to each well. Following incubation for 1 hour at room temperature the wells were washed six times with 300 μl TBS/0.5% Tween 20. To develop the reactions, a 200 μl aliquot of o-phenylenediamine dihydrochloride (OPD) substrate (Sigma) was added to each well. The absorbance at 450 nm was measured, following incubation at room temperature for 1 hour, by a microplate ELISA reader. An OD450 signal greater than 0.1 was considered positive.
Phage ELISA analysis of 19 “Fy^a” phage-peptide clones (Peptides Fya1-18 & Fya25; see Table 3 for sequence details) confirmed the binding specificity of the LM487 antibody for the Fy^a phage-peptides.

[2] = tested on: anti-Fy^b monoclonal antibody (LM447); assay: SPOTs membrane hybridisation with anti-Fy^b antibody; type: binding, Murine; settings: for SPOTs binding of anti-Fy^b antibody LM447 to membrane-synthesised peptide: FIG. 2, 20 Fyb peptides in duplicate, CPep75 (Spot 21) positive control, 2 μg/ml primary antibody, chemiluminescence; for SPOTs binding of anti-Fy^b antibody LM447 to consensus sequence-derived substituted peptides: FIG. 6, 16 peptides Fyb72-87, signal dramatically lower than positive control CPep75 (Spot 17)
Method: (§2) The peptide mimotopes were synthesised by the SPOT method (Frank; 1992) using F-moc chemistry. The peptides were anchored to an amino-PEG derivatised cellulose membrane (Intavis AG) and synthesised as discrete spots. Synthesis was by stepwise elongation of the peptide chain from C-terminus to the N-terminus, by manual pipetting of the respective amino acids, according to the Sigma Genosys protocol. Incubation times were modified when using Intavis AG membranes. After addition of the final amino acid, the terminal residues and side chains of the peptides were deprotected and the membrane was washed with methanol; air dried and then stored at −20° C. prior to use.
(§3) A membrane was placed in a 50 ml Falcon tube and blocked overnight at 4° C. with gentle agitation in TBS/0.25% Tween 20/5% skimmed milk powder. A 2 μg/ml dilution of the primary (1°) antibody (monoclonal or polyclonal) was prepared in TBS/0.25% Tween20/5% skimmed milk powder before incubation with the membrane for 1 hour at room temperature on a spiral rotor. Following 4 washes, each for 5 minutes with 20 ml of TBS/0.25% Tween20, the membrane was incubated for 1 hour at room temperature with a 1/5000 dilution of the secondary (2°) antibody, prepared in TBS/0.25% Tween20/5% skimmed milk powder. Peroxidase labelled rabbit anti-mouse IgG (Sigma) was used for the detection of the murine anti-Fy^a (LM487) and anti-Fy^b (LM447) 1° antibodies and peroxidase labelled goat anti-human IgG (Pharmacia) for the detection of the human 1° antibodies. Following 4 washes, each for 5 minutes with 20 ml of TBS/0.25% Tween20, the membrane was blotted to remove excess fluid. Bound antibody was detected by chemiluminescence. ECL detection reagents (Amersham Biosciences) were mixed and overlaid on the membrane for 2 minutes. The chemiluminescent substrate was removed and the membrane blotted to remove excess fluid. Positive spots were visualised following exposure to Hyperfilm ECL (Amersham Biosciences) for a series of short incubation times (5 seconds to 10 minutes).

[3] = tested on: anti-Fy^b monoclonal antibody (LM447); assay: Phage ELISA (capture ELISA) of phage-peptides on coated anti-Fy^b antibody; type: binding, Murine; settings: FIG. 1, LM447 coated from 10 μg/ml stock, phage culture supernatant, OD450 greater than 0.1 considered positive, 20 phage assayed
Method: as §1
The phage ELISA results confirmed the binding of the anti-Fy^b monoclonal, LM447. A 10 μg/ml stock of this monoclonal antibody was prepared in ELISA coating buffer and 150 μl aliquots were added to wells of an Immulon 4 ELISA plate, and then incubated overnight at 4° C. Unbound antibody was discarded and the wells were blocked with 350 μl of blocking buffer for 1 hour at 4° C. The wells were washed three times with 300 μl TBS/0.5% Tween 20 and 100 μl of selected phage culture supernatants were added to appropriate wells for 1 hour at room temperature. Unbound phage were removed and the wells washed six times with 300 μl TBS/0.5% Tween 20. A 1:5000 dilution of horseradish peroxidase (HRP) conjugated anti-M13, secondary antibody was prepared in blocking buffer and 100 μl aliquots added to each well. Following incubation for 1 hour at room temperature the wells were washed six times with 300 μl TBS/0.5% Tween 20. To develop the reactions, 200 μl aliquots of o-phenylenediamine dihydrochloride (OPD) substrate (Sigma) was added to each well. The absorbance at 450 nm was measured following incubation at room temperature for 1 hour. The absorbance values at 450 nm, confirmed the binding of 14 (Peptides Fyb1, Fyb2, Fyb4-5, Fyb7-13, Fyb25, 27 & 28) of the 20 phage assayed (see FIG. 1).

[4] = tested on: polyclonal anti-RhD preparation (Human Anti-D Ig); assay: SPOTs membrane hybridisation with polyclonal anti-RhD; type: binding; settings: FIG. 8; Spots 1-25 = RhD81-105; Spots 26-28 = RhD68, RhD71, RhD79; Spot 29 CPep75 and Spot 30 CPep76 negative controls
Method: as §2
as §3, with “minutes). […]” for “minutes).”

[5] = tested on: anti-RhD monoclonal antibody T10 (LHM76/55); assay: Biopanning of phage-peptide libraries with anti-RhD T10; type: binding, Human; settings: phage-peptide libraries; three rounds of panning
Description: (§4) Three different phage libraries from New England Biolabs. (Ph.D. 7 and Ph.D. 12 displaying linear 7- and 12-mer peptides, respectively and Ph.D. C7C displaying 7-mer peptides constrained by a disulphide bridge at their termini) and a linear 15mer library (kindly provided by Prof. George P. Smith, University of Missouri) were used in biopanning experiments with 10 different monoclonal antibodies and a polyclonal preparation (Table 1).
(§5) For each target antibody/library combination, a separate well of a 96-well Immulon 4 flat-bottomed ELISA plate (Thermo Labsystems) was coated with 5 μg of antibody in 150 μl ELISA coating buffer (15 mM Na2CO3, 35 mM NaHCO3, pH9.6). Plates were sealed and incubated at 4° C. overnight. Unbound antibody was discarded and 350 μl of blocking buffer (0.1M NaHCO3/3% skimmed milk powder) was added to each well. Plates were sealed and incubated for 1 hour at 4° C. The blocking buffer was removed and the wells were washed six times with 300 μl TBS/0.1% Tween 20. Approximately 2×10^11 plaque forming units (pfu) in 100 μl TBS/0.1% Tween 20 were added to each well and the plates were incubated at room temperature for 1 hour. Wells were washed ten times with 300 μl TBS/0.1% Tween 20. Bound phage were eluted by incubation with 100 μl of 0.2M glycine-HCl/BSA, pH2.2 (1 mg/ml) for 10 minutes, then neutralised with 15 μl of 1M Tris-HCL (pH9.1). An aliquot of the Round 1 eluate was removed and titred. The remainder of the eluted phage were amplified by infection of E. coli ER2538 cells for 4.5 hours at 37° C. The cultures were centrifuged for 10 minutes at 10,000 rpm at 4° C. The supernatants were recovered, ⅙ volume PEG/NaCl (20% polyethylene glycol 8000; 2.5M NaCl) added, then incubated overnight at 4° C. The PEG-precipitated phage were centrifuged at 10,000 rpm for 15 minutes at 4° C. The supernatant was removed and the phage pellet resuspended in 200 μl TBS. Two further rounds of panning were undertaken and approximately 2×10^11 pfu of the Round 2 or Round 3 amplified eluates were used as input phage. Round 3 eluates were titrated but not amplified. Individual plaques were amplified and subjected to PCR amplification, prior to DNA sequence analysis. The specificity of peptide-antibody binding was subsequently determined using both phage ELISA and SPOTs techniques.

[6] = tested on: anti-RhD monoclonal antibody T27 (LHM169/81); assay: Biopanning of phage-peptide libraries with anti-RhD T27; type: binding, Human
Description: as §4, §5

[7] = tested on: anti-RhE monoclonal antibody E0002; assay: SPOTs membrane hybridisation with anti-RhE monoclonal E0002; type: binding, Human; settings: FIG. 9; 36 RhE peptide mimotopes; CPep75 (Spot 37), CPep76 (Spot 38) negative controls
Method: as §2, §3
The RhD, RhE and Rhe peptide mimotopes (see Tables 4 & 5) were synthesised by SPOTs and hybridisation of the membranes was undertaken with the appropriate antibodies (Table 1). FIGS. 7-10 show examples of peptide mimotopes reacting specifically with the antibody originally used in their selection.

## Fya2: Fya peptide mimotope, Table 3 (TNLRLPA)
[1]
  Phage ELISA binding of phage-peptide to anti-Fy^a antibody LM487: failed to bind

## Fya14: Fya peptide mimotope, Table 3 (GDWLHW)
[1]
  Phage ELISA binding of phage-peptide to anti-Fy^a antibody LM487: failed to bind

## Fya18: Fya peptide mimotope, Table 3 (PSPGQI)
[1]
  Phage ELISA binding of phage-peptide to anti-Fy^a antibody LM487: failed to bind

## MFQEHTPAFGGL [Fyb7]
[2]
  SPOTs binding of anti-Fy^b antibody LM447 to membrane-synthesised peptide: failed to react
[3]
  Phage ELISA binding of phage-peptide to anti-Fy^b antibody LM447 (absorbance at 450 nm): phage ELISA signals equally as strong as Peptides Fyb12 and Fyb13

## MFQPDNPPTKNP [Fyb84]
[2]
  SPOTs binding of anti-Fy^b antibody LM447 to consensus sequence-derived substituted peptides: capable of binding

## MFQPDNPPTKNV [Fyb85]
[2]
  SPOTs binding of anti-Fy^b antibody LM447 to consensus sequence-derived substituted peptides: capable of binding

## MFQPTHWGTRLS [Fyb9]
[2]
  SPOTs binding of anti-Fy^b antibody LM447 to membrane-synthesised peptide: failed to react
[3]
  Phage ELISA binding of phage-peptide to anti-Fy^b antibody LM447 (absorbance at 450 nm): phage ELISA signals equally as strong as Peptides Fyb12 and Fyb13

## MVQELPFVLRSK [Fyb11]
[2]
  SPOTs binding of anti-Fy^b antibody LM447 to membrane-synthesised peptide: failed to react
[3]; listed as Fybll
  Phage ELISA binding of phage-peptide to anti-Fy^b antibody LM447 (absorbance at 450 nm): phage ELISA signals equally as strong as Peptides Fyb12 and Fyb13

## MYQDTPPPRKNV [Fyb1]
[2]
  SPOTs binding of anti-Fy^b antibody LM447 to membrane-synthesised peptide: failed to react
[3]
  Phage ELISA binding of phage-peptide to anti-Fy^b antibody LM447 (absorbance at 450 nm): phage ELISA signals equally as strong as Peptides Fyb12 and Fyb13

## PDGDYDANLEAAAP [CPep75, 14-mer immunisation peptide used in the development of the LM447 antibody, reference compound]
[2]
  SPOTs binding of anti-Fy^b antibody LM447 to membrane-synthesised peptide: Binding was also observed
[2]; FIG. 5, Spots 1-37 = Fya 1-37, Spots 38-40 = Fya17, Fya25, Fya35, Spot 41 Cpep75, 42 Cpep76, 43 CPep118, 44 Fyb1, membranes hybridised in parallel with both antibodies
  Reciprocal SPOTs hybridisation: binding of anti-Fy^b monoclonal antibody: capable of binding the anti-Fy^b antibody

## RhD68: RhD peptide mimotope, Table 4 (LDTYWYREHFRR)
[4]
  SPOTs recognition by polyclonal anti-RhD: recognised
[5]
  Selection by biopanning with anti-RhD monoclonal antibody T10: identified through biopanning

## RhD71: RhD peptide mimotope, Table 4 (VPWFRAP)
[4]
  SPOTs recognition by polyclonal anti-RhD: recognised
[5]
  Selection by biopanning with anti-RhD monoclonal antibody T10: identified through biopanning

## RhD79: RhD peptide mimotope, Table 4 (LPWYRH)
[4]
  SPOTs recognition by polyclonal anti-RhD: recognised
[5]
  Selection by biopanning with anti-RhD monoclonal antibody T10: identified through biopanning

## RhD 3 (NLLPAKL)
[6]
  Panning Antibody (antibody that selected the phage-peptide in biopanning): RhD T27

## RhD 4 (HTALSTS)
[6]
  Panning Antibody (antibody that selected the phage-peptide in biopanning): RhD T27

## RhD 5 (TPGSGQF)
[6]
  Panning Antibody (antibody that selected the phage-peptide in biopanning): RhD T27

## RhD 6 (FSPNNSETTNYT)
[6]
  Panning Antibody (antibody that selected the phage-peptide in biopanning): RhD T27

## RhD 7 (TTVPDTWVLFPR)
[6]
  Panning Antibody (antibody that selected the phage-peptide in biopanning): RhD T27

## RhD 8 (SNVPLHWILSPR)
[6]
  Panning Antibody (antibody that selected the phage-peptide in biopanning): RhD T27

## RhD 9 (WHFEWWRATPSG)
[6]
  Panning Antibody (antibody that selected the phage-peptide in biopanning): RhD T27

## RhD 10 (NYPAVVSNSLLA)
[6]
  Panning Antibody (antibody that selected the phage-peptide in biopanning): RhD T27

## RhD 11 (DVYDTRPYHGFM)
[6]
  Panning Antibody (antibody that selected the phage-peptide in biopanning): RhD T27

## RhD 12 (HQNPWLLWPRGF)
[6]
  Panning Antibody (antibody that selected the phage-peptide in biopanning): RhD T27

## RhD 13 (VIDWLLCPRGFSACM)
[6]
  Panning Antibody (antibody that selected the phage-peptide in biopanning): RhD T27

## RhD 14 (DRRIFWWSLRSAPGA)
[6]
  Panning Antibody (antibody that selected the phage-peptide in biopanning): RhD T27

## RhD 15 (LHAWHRNTIGWWIGF)
[6]
  Panning Antibody (antibody that selected the phage-peptide in biopanning): RhD T27

## RhE25: RhE peptide mimotope, Table 5 (GLSYYALITRYLGAA)
[7]
  SPOTs binding of anti-RhE monoclonal antibody E0002: Specific binding

## TFQPRSWPNIDL [Fyb12]
[2]
  SPOTs binding of anti-Fy^b antibody LM447 to membrane-synthesised peptide: successfully bound

## TFQYLDPPPFTP [Fyb13]
[2]
  SPOTs binding of anti-Fy^b antibody LM447 to membrane-synthesised peptide: successfully bound
